Reference: ChEMBL document CHEMBL5678818, “Discovery of potent SOS1 inhibitors that block RAS activation via disruption of the RAS-SOS1 interaction” (Proc Natl Acad Sci U S A, 2019)

What was measured:
[1] = biological target: Calcium/calmodulin-dependent protein kinase type 1D (Homo sapiens) (UniProt Q8IU85); experiment: Inhibition of CAMK1D (unknown origin) assessed as residual activity at 1000 nM by KINOMEscan analysis relative to control
[2] = biological target: T1, Serine/threonine-protein kinase Chk1 (Homo sapiens) (UniProt O14757); experiment: Inhibition of CHEK1 (unknown origin) assessed as residual activity at 1000 nM by KINOMEscan analysis relative to control
T1 sequence (whole entry): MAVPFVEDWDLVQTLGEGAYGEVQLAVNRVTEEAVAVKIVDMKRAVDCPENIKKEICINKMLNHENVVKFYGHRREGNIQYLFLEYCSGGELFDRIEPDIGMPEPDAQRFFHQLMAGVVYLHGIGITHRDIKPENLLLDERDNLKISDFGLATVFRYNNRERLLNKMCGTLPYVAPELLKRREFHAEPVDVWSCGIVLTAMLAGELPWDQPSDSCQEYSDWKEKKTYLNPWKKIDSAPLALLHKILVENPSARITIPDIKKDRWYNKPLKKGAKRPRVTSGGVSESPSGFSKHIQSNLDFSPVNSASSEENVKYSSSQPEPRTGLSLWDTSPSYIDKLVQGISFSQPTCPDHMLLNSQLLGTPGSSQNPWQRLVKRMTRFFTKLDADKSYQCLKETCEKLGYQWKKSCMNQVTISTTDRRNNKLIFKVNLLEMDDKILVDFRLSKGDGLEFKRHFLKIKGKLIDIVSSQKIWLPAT

[3] = biological target: Tyrosine-protein kinase JAK2 (Homo sapiens) (UniProt O60674); experiment: Inhibition of JAK2 JH1 catalytic domain (unknown origin) assessed as residual activity at 1000 nM by KINOMEscan analysis relative to control
[4] = biological target: T2, Dual specificity mitogen-activated protein kinase kinase 5 (Homo sapiens) (UniProt Q13163); experiment: Inhibition of MEK5 (unknown origin) assessed as residual activity at 1000 nM by KINOMEscan analysis relative to control
T2 sequence (whole entry): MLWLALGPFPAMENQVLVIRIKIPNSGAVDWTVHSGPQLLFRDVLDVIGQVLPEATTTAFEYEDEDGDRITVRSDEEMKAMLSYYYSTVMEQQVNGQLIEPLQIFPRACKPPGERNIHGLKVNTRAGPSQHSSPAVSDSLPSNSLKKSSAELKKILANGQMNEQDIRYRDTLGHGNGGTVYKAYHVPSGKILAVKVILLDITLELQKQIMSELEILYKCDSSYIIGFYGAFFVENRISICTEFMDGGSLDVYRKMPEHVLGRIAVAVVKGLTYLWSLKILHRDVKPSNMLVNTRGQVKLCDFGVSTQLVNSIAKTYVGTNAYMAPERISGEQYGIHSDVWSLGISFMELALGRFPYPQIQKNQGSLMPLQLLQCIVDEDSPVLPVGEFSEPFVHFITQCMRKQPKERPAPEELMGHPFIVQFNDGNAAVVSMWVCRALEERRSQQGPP

[5] = biological target: Serine/threonine-protein kinase PAK 4 (Homo sapiens) (UniProt O96013); experiment: Inhibition of PAK4 (unknown origin) assessed as residual activity at 1000 nM by KINOMEscan analysis relative to control
[6] = biological target: T3, NUAK family SNF1-like kinase 2 (Homo sapiens) (UniProt Q9H093); experiment: Inhibition of SNARK (unknown origin) assessed as residual activity at 1000 nM by KINOMEscan analysis relative to control
T3 sequence (whole entry): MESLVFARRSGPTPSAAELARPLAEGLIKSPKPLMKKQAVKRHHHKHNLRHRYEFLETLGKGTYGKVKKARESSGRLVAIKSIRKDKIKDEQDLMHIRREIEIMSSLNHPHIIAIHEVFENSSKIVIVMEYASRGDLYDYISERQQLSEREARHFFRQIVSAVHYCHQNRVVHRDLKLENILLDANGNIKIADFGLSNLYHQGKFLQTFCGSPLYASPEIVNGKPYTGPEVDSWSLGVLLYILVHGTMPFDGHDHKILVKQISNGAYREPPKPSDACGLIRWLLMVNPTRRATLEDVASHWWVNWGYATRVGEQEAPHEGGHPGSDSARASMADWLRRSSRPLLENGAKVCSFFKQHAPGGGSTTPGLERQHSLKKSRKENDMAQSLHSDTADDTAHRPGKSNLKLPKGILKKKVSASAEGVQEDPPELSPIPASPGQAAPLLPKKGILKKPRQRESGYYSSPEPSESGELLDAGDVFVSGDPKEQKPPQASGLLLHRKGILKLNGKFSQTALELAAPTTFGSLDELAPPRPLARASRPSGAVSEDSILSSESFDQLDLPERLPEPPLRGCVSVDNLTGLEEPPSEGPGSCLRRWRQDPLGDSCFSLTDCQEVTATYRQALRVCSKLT

[7] = biological target: T4, Mitogen-activated protein kinase kinase kinase 7 (Homo sapiens) (UniProt O43318); experiment: Inhibition of TAK1 (unknown origin) assessed as residual activity at 1000 nM by KINOMEscan analysis relative to control
T4 sequence (whole entry): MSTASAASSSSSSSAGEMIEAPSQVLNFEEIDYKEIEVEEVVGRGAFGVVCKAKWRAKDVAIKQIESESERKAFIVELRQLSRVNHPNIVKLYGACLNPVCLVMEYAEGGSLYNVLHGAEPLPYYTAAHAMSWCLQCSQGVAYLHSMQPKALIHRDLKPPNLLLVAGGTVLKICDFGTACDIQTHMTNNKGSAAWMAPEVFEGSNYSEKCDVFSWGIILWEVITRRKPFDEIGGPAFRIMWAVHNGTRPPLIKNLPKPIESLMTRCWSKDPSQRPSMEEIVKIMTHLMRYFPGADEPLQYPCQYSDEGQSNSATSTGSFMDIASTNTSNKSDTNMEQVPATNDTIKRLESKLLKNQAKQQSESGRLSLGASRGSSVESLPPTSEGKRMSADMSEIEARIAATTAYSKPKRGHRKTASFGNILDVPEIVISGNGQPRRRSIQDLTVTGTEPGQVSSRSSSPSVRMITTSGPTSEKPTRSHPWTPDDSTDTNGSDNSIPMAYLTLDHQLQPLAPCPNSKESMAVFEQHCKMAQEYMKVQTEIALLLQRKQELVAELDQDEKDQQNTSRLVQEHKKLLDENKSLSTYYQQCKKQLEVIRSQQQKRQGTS

Chain of Calcium/calmodulin-dependent protein kinase type 1D (Homo sapiens) (Q8IU85 whole entry, looked up): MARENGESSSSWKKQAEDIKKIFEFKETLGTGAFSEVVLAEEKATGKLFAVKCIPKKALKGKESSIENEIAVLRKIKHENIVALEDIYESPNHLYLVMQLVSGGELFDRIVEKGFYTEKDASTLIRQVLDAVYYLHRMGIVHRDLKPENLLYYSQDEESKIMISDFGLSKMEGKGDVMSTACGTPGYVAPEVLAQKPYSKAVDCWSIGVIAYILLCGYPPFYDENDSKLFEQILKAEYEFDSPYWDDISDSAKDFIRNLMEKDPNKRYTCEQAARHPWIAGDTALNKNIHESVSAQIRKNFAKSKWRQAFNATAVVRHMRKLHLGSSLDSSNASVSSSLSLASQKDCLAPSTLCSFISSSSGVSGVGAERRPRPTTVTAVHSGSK
Chain of Serine/threonine-protein kinase PAK 4 (Homo sapiens) (O96013 whole entry, looked up): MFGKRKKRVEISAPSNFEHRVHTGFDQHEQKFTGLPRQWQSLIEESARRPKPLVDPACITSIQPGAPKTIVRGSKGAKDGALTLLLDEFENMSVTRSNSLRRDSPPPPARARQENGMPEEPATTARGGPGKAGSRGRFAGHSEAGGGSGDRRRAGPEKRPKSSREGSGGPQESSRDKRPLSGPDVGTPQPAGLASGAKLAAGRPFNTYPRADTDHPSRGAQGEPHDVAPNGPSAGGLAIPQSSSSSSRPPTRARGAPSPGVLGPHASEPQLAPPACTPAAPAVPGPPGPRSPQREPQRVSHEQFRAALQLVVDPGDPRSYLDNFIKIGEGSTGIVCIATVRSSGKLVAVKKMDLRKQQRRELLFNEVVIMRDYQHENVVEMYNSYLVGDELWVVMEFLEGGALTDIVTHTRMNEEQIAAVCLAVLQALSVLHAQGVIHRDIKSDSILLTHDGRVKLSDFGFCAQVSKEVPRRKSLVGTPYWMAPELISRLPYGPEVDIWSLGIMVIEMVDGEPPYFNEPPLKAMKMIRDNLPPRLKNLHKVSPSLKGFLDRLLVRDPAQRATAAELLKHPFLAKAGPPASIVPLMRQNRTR
Chain of Tyrosine-protein kinase JAK2 (Homo sapiens) (O60674 whole entry, the tested form may be a part): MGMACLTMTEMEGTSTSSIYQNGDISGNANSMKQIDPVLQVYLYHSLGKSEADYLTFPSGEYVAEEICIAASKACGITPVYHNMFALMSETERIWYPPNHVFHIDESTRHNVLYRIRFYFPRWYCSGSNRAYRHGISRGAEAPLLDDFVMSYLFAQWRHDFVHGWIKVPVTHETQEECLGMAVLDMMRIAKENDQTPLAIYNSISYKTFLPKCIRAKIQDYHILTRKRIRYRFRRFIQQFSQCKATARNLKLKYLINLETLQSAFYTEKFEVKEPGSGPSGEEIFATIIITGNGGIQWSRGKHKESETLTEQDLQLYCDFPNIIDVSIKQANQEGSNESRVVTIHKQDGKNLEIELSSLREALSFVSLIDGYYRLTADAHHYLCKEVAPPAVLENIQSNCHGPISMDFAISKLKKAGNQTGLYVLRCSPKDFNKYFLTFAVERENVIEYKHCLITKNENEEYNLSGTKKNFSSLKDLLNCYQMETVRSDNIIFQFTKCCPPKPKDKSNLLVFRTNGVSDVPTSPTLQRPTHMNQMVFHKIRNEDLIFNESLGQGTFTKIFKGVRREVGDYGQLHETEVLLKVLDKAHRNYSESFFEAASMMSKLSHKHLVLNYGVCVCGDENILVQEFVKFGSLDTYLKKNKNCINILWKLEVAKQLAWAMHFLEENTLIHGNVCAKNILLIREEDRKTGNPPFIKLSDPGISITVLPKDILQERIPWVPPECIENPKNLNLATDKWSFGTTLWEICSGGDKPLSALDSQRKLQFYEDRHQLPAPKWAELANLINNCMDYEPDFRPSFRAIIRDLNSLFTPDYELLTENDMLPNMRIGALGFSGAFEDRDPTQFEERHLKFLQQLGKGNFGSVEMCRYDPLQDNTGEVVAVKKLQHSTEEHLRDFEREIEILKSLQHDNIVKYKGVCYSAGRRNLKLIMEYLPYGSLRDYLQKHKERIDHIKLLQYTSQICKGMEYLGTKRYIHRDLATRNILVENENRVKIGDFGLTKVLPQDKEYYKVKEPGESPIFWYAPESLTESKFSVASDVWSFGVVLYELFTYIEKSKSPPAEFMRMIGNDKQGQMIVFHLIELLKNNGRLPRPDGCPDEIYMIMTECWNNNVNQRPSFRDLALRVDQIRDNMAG

COc1cc2nc(C)nc(N[C@H](C)c3cccc(-c4cn[nH]c4)c3)c2cc1OC
Activity [1]: 68% | Activity [2]: 98% | Activity [3]: 74% | Activity [4]: 61% | Activity [5]: 86% | Activity [6]: 100% | Activity [7]: 100%

COc1cc2ncnc(N[C@H](C)c3cccc4ccccc34)c2cc1OC
Activity [1]: 81% | Activity [2]: 100% | Activity [3]: 89% | Activity [4]: 89% | Activity [5]: 100% | Activity [6]: 95% | Activity [7]: 85%
